Reference: ChEMBL document CHEMBL1132706 (J Med Chem, 1999)
Blank lines part the entries; values can stand above or below the molecule they belong to.

How the values were obtained:
MT4 [1] = assay: Concentration of compound required to protect 50% of MT-4 cells against retroviral cytopathic effects by HIV-2 (ROD); type: functional, cell-based; details: Homo sapiens
[2] = Compound was evaluated for the relative inhibition of Viral infection in MAGI cells at concentration 1 mM, using assay 1; type: functional, Homo sapiens
[3] = Compound was evaluated for the relative inhibition of Viral infection in MAGI cells at concentration 0.1 mM, using assay 3; type: functional, Homo sapiens
[4] = target: T1, Human immunodeficiency virus type 1 integrase (Human immunodeficiency virus 1, UniProt Q7ZJM1)
T1 sequence (Q7ZJM1 whole entry): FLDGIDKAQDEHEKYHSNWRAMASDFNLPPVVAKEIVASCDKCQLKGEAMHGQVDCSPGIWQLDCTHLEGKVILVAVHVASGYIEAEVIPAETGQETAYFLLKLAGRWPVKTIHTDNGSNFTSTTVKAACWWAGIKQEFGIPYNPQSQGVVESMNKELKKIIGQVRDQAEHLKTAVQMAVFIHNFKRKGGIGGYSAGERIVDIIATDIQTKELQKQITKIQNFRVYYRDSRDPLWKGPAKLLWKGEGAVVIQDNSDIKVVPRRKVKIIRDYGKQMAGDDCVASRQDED
Description: Compound was evaluated for the inhibitory concentration against HIV-1 integrase by radiolabeled oligonucleotide-based assay 3''-processing

CEM-SS [5] = assay: Compound was evaluated for the cytoprotection by XTT cytoprotection assay through the NCI AIDS Screen; type: functional, cell-based; details: Homo sapiens
[6] = Compound was evaluated for the relative inhibition of Viral infection in MAGI cells at concentration 10 mM, using assay 1; type: functional, Homo sapiens
MT4 [7] = assay: Concentration of compound required to reduce MT-4 cell viability by 50%; type: functional, cell-based; details: Homo sapiens
[8] = target: T1, Human immunodeficiency virus type 1 integrase; remark: listed apart in the source
Description: Inhibition of HIV-1 integrase by radiolabeled oligonucleotide-based assay integration

MT4 [9] = assay: Concentration of compound required to protect 50% of MT-4 cells against retroviral cytopathic effects by HIV-1 ([…]); type: functional, cell-based; details: Homo sapiens
[10] = Compound was evaluated for the relative inhibition of Viral infection in MAGI cells at concentration 10mM, using assay 2; type: functional, Homo sapiens
[11] = Compound was evaluated for the relative inhibition of Viral infection in MAGI cells at concentration 10 mM, using assay 3; type: functional, Homo sapiens
[12] = Compound was evaluated for the relative inhibition of Viral infection in MAGI cells at concentration 100 mM, using assay 1; type: functional, Homo sapiens
CEM-SS [13] = assay: Compound was evaluated for the cytoprotection of CEM-SS cells by XTT cytoprotection assay through the NCI AIDS Screen; type: functional, cell-based; details: Homo sapiens
[14] = Compound was evaluated for the relative Viral infection in MAGI cells at concentration 100 mM, using assay 2
CEM-SS [15] = assay: Concentration of compound required to protect 50% of CEM-SS cells against retroviral cytopathic effects of HIV-RF on 9th day at dil 1:100; type: functional, cell-based; details: Homo sapiens
CEM-SS [16] = assay: Concentration of compound required to protect 50% of CEM-SS cells against retroviral cytopathic effects of HIV-RF on 9th day at dil 1:200; type: functional, cell-based; details: Homo sapiens
CEM-SS [17] = assay: Concentration of compound required to protect 50% of CEM-SS cells against retroviral cytopathic effects of HIV-RF on 3rd day at dil 1:50; type: functional, cell-based; details: Homo sapiens
CEM-SS [18] = assay: Concentration of compound required to protect 50% of CEM-SS cells against retroviral cytopathic effects of HIV-RF on 6th day at dil 1:100; type: functional, cell-based; details: Homo sapiens
CEM-SS [19] = assay: Compound was evaluated for the effect of Order of Addition on Cytoprotection against HIV1-RF at dilution 333, Add at infection; type: functional, Homo sapiens
CEM-SS [20] = assay: Compound was evaluated for the effect of Order of Addition on Cytoprotection against HIV1-RF at dilution 100, Pretreat and add 10 uM; type: functional, Homo sapiens
CEM-SS [21] = assay: Concentration of compound required to protect 50% of CEM-SS cells against retroviral cytopathic effects of HIV-RF on 6th day at dil 1:50; type: functional, cell-based; details: Homo sapiens
CEM-SS [22] = assay: Compound was evaluated for the effect of Order of Addition on Cytoprotection against HIV1-RF at dilution 100, Pretreat and add 1 uM; type: functional, Homo sapiens
CEM-SS [23] = assay: Compound was evaluated for the effect of Order of Addition on Cytoprotection against HIV1-RF at dilution 333, Pretreat and add 10 uM; type: functional, Homo sapiens
CEM-SS [24] = assay: Concentration of compound required to protect 50% of CEM-SS cells against retroviral cytopathic effects of HIV-RF on 9th day at dil 1:400; type: functional, cell-based; details: Homo sapiens
[25] = Compound was evaluated for the relative inhibition of Viral infection in MAGI cells at concentration 0.1 uM, using assay 3
CEM-SS [26] = assay: Compound was evaluated for the effect of Order of Addition on Cytoprotection against HIV1-RF at dilution 1000, Add at infection; type: functional, Homo sapiens
CEM-SS [27] = assay: Compound was evaluated for the effect of Order of Addition on Cytoprotection against HIV1-RF at dilution 1000, Pretreat and add 1 uM; type: functional, Homo sapiens
CEM-SS [28] = assay: Concentration of compound required to protect 50% of CEM-SS cells against retroviral cytopathic effects of HIV-RF on 9th day at dil 1:50; type: functional, cell-based; details: Homo sapiens
CEM-SS [29] = assay: Compound was evaluated for the effect of Order of Addition on Cytoprotection against HIV1-RF at dilution 1000, Pretreat with 100 uM; type: functional, Homo sapiens
CEM-SS [30] = assay: Compound was evaluated for the effect of Order of Addition on Cytoprotection against HIV1-RF at dilution 333,Pretreat and add 1 uM; type: functional, Homo sapiens
CEM-SS [31] = assay: Compound was evaluated for the effect of Order of Addition on Cytoprotection against HIV1-RF at dilution 1000, Pretreat and add 10 uM; type: functional, Homo sapiens
CEM-SS [32] = assay: Concentration of compound required to protect 50% of CEM-SS cells against retroviral cytopathic effects of HIV-RF on 6th day at dil 1:200; type: functional, cell-based; details: Homo sapiens
MT4 [33] = assay: Concentration of compound required to protect 50% of MT-4 cells against retroviral cytopathic effects of HIV-2 (ROD); type: functional, cell-based; details: Homo sapiens
CEM-SS [34] = assay: Concentration of compound required to protect 50% of CEM-SS cells against retroviral cytopathic effects of HIV-RF on 3rd day at dil 1:200; type: functional, cell-based; details: Homo sapiens
MT4 [35] = assay: Concentration of compound required to protect 50% of MT-4 cells against retroviral cytopathic effects of HIV-1 ([…]); type: functional, cell-based; details: Homo sapiens
CEM-SS [36] = assay: Concentration of compound required to protect 50% of CEM-SS cells against retroviral cytopathic effects of HIV-RF on 3rd day at dil 1:100; type: functional, cell-based; details: Homo sapiens
CEM-SS [37] = assay: Compound was evaluated for the effect of Order of Addition on Cytoprotection against HIV1-RF at dilution 100, Pretreat with 100 uM; type: functional, Homo sapiens
CEM-SS [38] = assay: Concentration of compound required to protect 50% of CEM-SS cells against retroviral cytopathic effects of HIV-RF on 6th day at dil 1:400; type: functional, cell-based; details: Homo sapiens
CEM-SS [39] = assay: Compound was evaluated for the effect of Order of Addition on Cytoprotection against HIV1-RF at dilution 333, Pretreat with 100 uM
CEM-SS [40] = assay: Compound was evaluated for the effect of Order of Addition on Cytoprotection against HIV1-RF at dilution 100, Add at infection; type: functional, Homo sapiens
CEM-SS [41] = assay: Compound was evaluated for the cytoprotection of CEM-SS cells by XTT cytoprotection assay through the NCI AIDS Screen (EC50); type: functional, cell-based; details: Homo sapiens
CEM-SS [42] = assay: Compound was evaluated for the cytoprotection of CEM-SS cells by XTT cytoprotection assay through the NCI AIDS Screen (IC50); type: functional, cell-based; details: Homo sapiens
CEM-SS [43] = assay: Compound was evaluated for the effect of Order of Addition on Cytoprotection against HIV-1RF at dilution 1000, Pretreat only (100 uM); type: functional, Homo sapiens
CEM-SS [44] = assay: Compound was evaluated for the effect of Order of Addition on Cytoprotection against HIV-1RF at dilution 333, Pretreat only (100 uM); type: functional, Homo sapiens
CEM-SS [45] = assay: Compound was evaluated for the effect of Order of Addition on Cytoprotection against HIV-1RF at dilution 100, Pretreat only (100 uM); type: functional, Homo sapiens
CEM-SS [46] = assay: Compound was evaluated for the effect of Order of Addition on Cytoprotection against HIV-1RF at dilution 100, Pretreat with 100 uM; type: functional, Homo sapiens
CEM-SS [47] = assay: Compound was evaluated for the effect of Order of Addition on Cytoprotection against HIV-1RF at dilution 1000, Pretreat with 100 uM; type: functional, Homo sapiens
CEM-SS [48] = assay: Compound was evaluated for the effect of Order of Addition on Cytoprotection against HIV-1RF at dilution 333, Add at infection; type: functional, Homo sapiens
CEM-SS [49] = assay: Compound was evaluated for the effect of Order of Addition on Cytoprotection against HIV-1RF at dilution 333, Pretreat with 100 uM; type: functional, Homo sapiens
CEM-SS [50] = assay: Compound was evaluated for the effect of Order of Addition on Cytoprotection against HIV-1RF at dilution 100, Add at infection; type: functional, Homo sapiens
CEM-SS [51] = assay: Compound was evaluated for the effect of Order of Addition on Cytoprotection against HIV-1RF at dilution 1000, Add at infection; type: functional, Homo sapiens

EC50 (CEM-SS [15]): > 50 µM | EC50 (CEM-SS [16]): > 50 µM | EC50 (CEM-SS [17]): > 50 µM | EC50 (CEM-SS [18]): > 50 µM | EC50 (CEM-SS [21]): > 50 µM | IC50 [4]: 33.3 µM | EC50 (CEM-SS [24]): 29.4 µM | EC50 (CEM-SS [28]): > 50 µM | EC50 (CEM-SS [32]): 22.6 µM | EC50 (CEM-SS [34]): > 50 µM | IC50 [8]: 4.6 µM | EC50 (CEM-SS [36]): > 50 µM | EC50 (CEM-SS [38]): 19.6 µM
SMILES: CC(=O)Oc1ccc(/C=C/C(=O)O[C@H](C(=O)O)[C@H](OC(=O)/C=C/c2ccc(OC(C)=O)c(OC(C)=O)c2)C(=O)O)cc1OC(C)=O
Control (CEM-SS [19]): 81% | Control (CEM-SS [20]): 149% | Control (CEM-SS [22]): 100% | relative infection [2]: 83% | Control (CEM-SS [23]): 39% | relative infection [25]: 91% | Control (CEM-SS [26]): 60% | Control (CEM-SS [27]): 17% | Control (CEM-SS [29]): 51% | relative infection [6]: 88% | Control (CEM-SS [30]): 57% | IC50 (MT4 [7]): 60 µM | Control (CEM-SS [31]): 38% | EC50 (MT4 [33]): 5.1 µM | relative infection [10]: 76% | EC50 (MT4 [35]): 3.9 µM | Control (CEM-SS [37]): 120% | Control (CEM-SS [39]): 163% | relative infection [11]: 55% | relative infection [12]: 6% | Control (CEM-SS [40]): 141% | EC50 (CEM-SS [13]): 21 µM | IC50 (CEM-SS [13]): 23 µM | relative infection [14]: 5%

IC50 [4]: > 333 µM | IC50 [8]: 100 µM
SMILES: CC(=O)Oc1ccc(/C=C/C(=O)NCCOC(=O)/C=C/c2ccc(OC(C)=O)c(OC(C)=O)c2)cc1OC(C)=O
EC50 (CEM-SS [41]): > 15.6 µM | IC50 (CEM-SS [42]): 15.6 µM

The next lines start with the molecule.

SMILES: CC(=O)Oc1ccc(/C=C/C(=O)O[C@@H](C(=O)O)[C@@H](OC(=O)/C=C/c2ccc(OC(C)=O)c(OC(C)=O)c2)C(=O)O)cc1OC(C)=O
EC50 (MT4 [1]): 10.1 µM | relative infection [2]: 48% | relative infection [3]: 85% | IC50 [4]: 9.8 µM | EC50 (CEM-SS [5]): 16 µM | relative infection [6]: 73% | IC50 (MT4 [7]): 47.1 µM | IC50 [8]: 6.2 µM | EC50 (MT4 [9]): 4.1 µM | relative infection [10]: 50% | relative infection [11]: 42% | relative infection [12]: 4% | IC50 (CEM-SS [13]): 50 µM | relative infection [14]: 2%

SMILES: NS(=O)(=O)c1ccc(NC(=O)c2ccccc2SSc2ccccc2C(=O)Nc2ccc(S(N)(=O)=O)cc2)cc1
Control (CEM-SS [43]): 6% | Control (CEM-SS [44]): 4% | Control (CEM-SS [45]): 31%

SMILES: Cc1cn([C@H]2C[C@H](N=[N+]=[N-])[C@@H](CO)O2)c(=O)[nH]c1=O [ZIDOVUDINE]
Control (CEM-SS [46]): 114% | Control (CEM-SS [47]): 121% | Control (CEM-SS [48]): 3% | IC50 (MT4 [7]): 100 µM | EC50 (MT4 [9]): 0.005 µM | Control (CEM-SS [49]): 119% | Control (CEM-SS [50]): 35% | Control (CEM-SS [51]): 5%
